Legend:
[1] = The drug is tested on Salmonella typhimurium strain: LT2 for biotransformation. The drug concentrations were measured before and after a 12-h incubation by liquid-chromatography-coupled mass spectrometry (LC–MS); details: salmonella enterica subsp. enterica, 2 µM
[2] = The drug is tested on Proteus penneri strain: ATCC35198 for biotransformation. The drug concentrations were measured before and after a 12-h incubation by liquid-chromatography-coupled mass spectrometry (LC–MS); details: 2 µM
[3] = (§1) The drug is tested on the gut metagenome community of MV09 with ENA study accession number: PRJEB31790 and ENA sample accession number: SAMEA5537490 for biotransformation. The drug concentrations were measured over 9 timepoints collected between 0 and 24 hours of incubation by liquid-chromatography-coupled mass spectrometry (LC–MS); type: ADME; parameters: dose 2 uM, timepoint 0, 1, 2, 4, 6, 8, 12, 18, 24 hours; details: 2 µM
[4] = as §1, with “MV07” for “MV09”, “SAMEA5537488” for “SAMEA5537490”; type: ADME; parameters: dose 2 uM, timepoint 0, 1, 2, 4, 6, 8, 12, 18, 24 hours; details: 2 µM
[5] = as §1, with “MV11” for “MV09”, “SAMEA5537492” for “SAMEA5537490”; type: ADME; parameters: dose 2 uM, timepoint 0, 1, 2, 4, 6, 8, 12, 18, 24 hours; details: 2 µM
[6] = as §1, with “MV21” for “MV09”, “SAMEA5537502” for “SAMEA5537490”; type: ADME; parameters: dose 2 uM, timepoint 0, 1, 2, 4, 6, 8, 12, 18, 24 hours; details: 2 µM
[7] = as §1, with “MV24” for “MV09”, “SAMEA5537505” for “SAMEA5537490”; type: ADME; parameters: dose 2 uM, timepoint 0, 1, 2, 4, 6, 8, 12, 18, 24 hours; details: 2 µM
[8] = as §1, with “MV05” for “MV09”, “SAMEA5537486” for “SAMEA5537490”; type: ADME; parameters: dose 2 uM, timepoint 0, 1, 2, 4, 6, 8, 12, 18, 24 hours; details: 2 µM
[9] = as §1, with “MV14” for “MV09”, “SAMEA5537495” for “SAMEA5537490”; type: ADME; parameters: dose 2 uM, timepoint 0, 1, 2, 4, 6, 8, 12, 18, 24 hours; details: 2 µM
[10] = as §1, with “MV28” for “MV09”, “SAMEA5537509” for “SAMEA5537490”; type: ADME; parameters: dose 2 uM, timepoint 0, 1, 2, 4, 6, 8, 12, 18, 24 hours; details: 2 µM
[11] = as §1, with “MV27” for “MV09”, “SAMEA5537508” for “SAMEA5537490”; type: ADME; parameters: dose 2 uM, timepoint 0, 1, 2, 4, 6, 8, 12, 18, 24 hours; details: 2 µM

Row | Bacterial Biotransformation [1] | Bacterial Biotransformation [2] | Bacterial Biotransformation [3] | Bacterial Biotransformation [4] | Bacterial Biotransformation [5] | Bacterial Biotransformation [6] | Bacterial Biotransformation [7] | Bacterial Biotransformation [8] | Bacterial Biotransformation [9] | Bacterial Biotransformation [10] | Bacterial Biotransformation [11] | Structure (SMILES)
1 |  |  | Compound NOT metabolized | Compound NOT metabolized | Compound NOT metabolized | Compound NOT metabolized | Compound NOT metabolized | Compound NOT metabolized | Compound NOT metabolized | Compound NOT metabolized | Compound NOT metabolized | COc1ccc([C@@H]2Sc3ccccc3N(CCN(C)C)C(=O)[C@@H]2OC(C)=O)cc1 [DILTIAZEM]
2 |  | Compound NOT metabolized |  |  |  |  |  |  |  |  |  | O=C(CCCN1CCC(O)(c2ccc(Cl)cc2)CC1)c1ccc(F)cc1 [HALOPERIDOL]
3 | Compound NOT metabolized |  |  |  |  |  |  |  |  |  |  | CC(CCc1ccccc1)NCC(O)c1ccc(O)c(C(N)=O)c1 (configuration not stated) [LABETALOL]
4 | Compound NOT metabolized | Compound NOT metabolized |  |  |  |  |  |  |  |  |  | COC(=O)Nc1nc2ccc(C(=O)c3ccccc3)cc2[nH]1 [MEBENDAZOLE]
5 | Compound NOT metabolized |  |  |  |  |  |  |  |  |  |  | COc1ccc2cc([C@H](C)C(=O)O)ccc2c1 [NAPROXEN]

The remaining lines, values behind:

Row | Structure (SMILES) | Bacterial Biotransformation [1] | Bacterial Biotransformation [2] | Bacterial Biotransformation [3] | Bacterial Biotransformation [4] | Bacterial Biotransformation [5] | Bacterial Biotransformation [6] | Bacterial Biotransformation [7] | Bacterial Biotransformation [8] | Bacterial Biotransformation [9] | Bacterial Biotransformation [10] | Bacterial Biotransformation [11]
6 | CN1[C@@H]2CC[C@H]1C[C@@H](OC(=O)C(CO)c1ccccc1)C2 (some centres not stated) [ATROPINE] | Compound NOT metabolized | Compound NOT metabolized |  |  |  |  |  |  |  |  | 
7 | CC(=O)OCC(CCn1cnc2cnc(N)nc21)COC(C)=O [FAMCICLOVIR] |  |  | Compound metabolized | Compound metabolized | Compound metabolized | Compound metabolized | Compound metabolized | Compound metabolized | Compound metabolized | Compound metabolized | Compound metabolized
8 | Cc1ccc(NC(=O)c2ccc(CN3CCN(C)CC3)cc2)cc1Nc1nccc(-c2cccnc2)n1 [IMATINIB] |  | Compound NOT metabolized |  |  |  |  |  |  |  |  | 
9 | C#C[C@]1(OC(C)=O)CC[C@H]2[C@@H]3CCC4=CC(=O)CC[C@@H]4[C@H]3CC[C@@]21C [NORETHINDRONE ACETATE] |  |  | Compound metabolized | Compound metabolized | Compound metabolized | Compound metabolized | Compound metabolized | Compound metabolized | Compound metabolized | Compound metabolized | Compound metabolized
10 | C#C[C@]1(OC(C)=O)CC[C@H]2[C@@H]3CCC4=C/C(=N/O)CC[C@@H]4[C@H]3CC[C@@]21CC [NORGESTIMATE] | Compound NOT metabolized | Compound NOT metabolized |  |  |  |  |  |  |  |  | 

Source: ChEMBL document CHEMBL5303573, “Mapping human microbiome drug metabolism by gut bacteria and their genes” (Nature, 2019)
